Values quoted from earlier work in patent US20090226374A1, “ANAPHYLATOXINS FOR DETECTING CLINICAL CONDITIONS” (Health Aide, Inc., priority 2003, published 2009).
Like-named read-outs stand apart in the source and are kept apart here. Marks after values point to notes of the source that are not given here. Where no end group is shown, it is not given here. [ ]: non-standard residue; d: D form. The star is where a group is joined. Fmoc = O=C(OCC1c2ccccc2-c2ccccc21)*; Ahx = NCCCCCC(=O)O

What was measured:
[1] = test system: guinea pig ileum; details: for Relative Act. %: natural human C3a (1-77) = 100; for Relative Act. % / Relative molar activity (%): guinea pig ileum contraction; for Relative molar activity (%): pentapeptide L-G-L-A-R (C3a 73-77) = 100
[2] = assay not given
[3] = natural factor C3a (1-77) = 100
[4] = natural C3a of each species; human C3a = 100
[5] = test system: guinea pig platelet; details: guinea pig platelet aggregation

## A-G-L-A-R [Peptide 7]
[1]
  Relative Act. %: <0.001%
  Relative molar activity (%): 20%

## Ahx-Y-A-S-K-L-G-L-A-R ([Ahx]YASKLGLAR) [Peptide C2]
[2]; Table 1E
  Potency relative to C3a (57-77), %: 13%

## Ahx-Y-S-H-K-G-M-L-L-G-R ([Ahx]YSHKGMLLGR) [Peptide C8]
[2]; Table 1E
  Potency relative to C3a (57-77), %: 0.4%

## C3a (1-77): Natural human C3a anaphylatoxin (1-77), the natural factor
[3]
  Relative molar activity (%): 100%
[4]
  Potency %: 100%
[1]
  Relative Act. %: 100%

## F-G-L-A-R [Peptide 3]
[1]
  Relative Act. %: 1.1%
  Relative molar activity (%): 140%

## Fmoc-A-A-A-R-L-G-L-A-R (Fmoc-AAARLGLAR) [Peptide D1]
[2]; Table 1F
  Potency relative to C3a (57-77), %: 66%

## Fmoc-A-A-R-A-L-G-L-A-R (Fmoc-AARALGLAR) [Peptide D2]
[2]; Table 1F
  Potency relative to C3a (57-77), %: 41%

## Fmoc-A-R-A-A-L-G-L-A-R (Fmoc-ARAALGLAR) [Peptide D3]
[2]; Table 1F
  Potency relative to C3a (57-77), %: 37%

## Fmoc-Ahx-Y-A-S-K-L-G-L-A-R ({Fmoc-Ahx}-YASKLGLAR) [Peptide C3]
[2]; Table 1E
  Potency relative to C3a (57-77), %: 22%

## Fmoc-Ahx-Y-R-A-S-K-L-G-L-A-R ({Fmoc-Ahx}-YRASKLGLAR) [Peptide C5]
[2]; Table 1E
  Potency relative to C3a (57-77), %: 112%
[2]; Table 1F
  Potency relative to C3a (57-77), %: 112%

## Fmoc-Ahx-Y-S-H-K-G-M-L-L-G-R ({Fmoc-Ahx}-YSHKGMLLGR) [Peptide C9]
[2]; Table 1E
  Potency relative to C3a (57-77), %: 0.8%

## Fmoc-G-G-Y-R-A-S-K-L-G-L-A-R (Fmoc-GGYRASKLGLAR) [Peptide D8]
[2]; Table 1F
  Potency relative to C3a (57-77), %: 227%

## Fmoc-I-R-R--R-Y-A-S-K-L-G-L-A-R (Fmoc-IRRRYASKLGLAR) [Peptide B18]
[5]
  Potency relative to C3a (57-77), %: 50%

## Fmoc-K-K-Y-R-A-S-K-L-G-L-A-R (Fmoc-KKYRASKLGLAR) [Peptide D7]
[2]; Table 1F
  Potency relative to C3a (57-77), %: 279%

## Fmoc-R-A-A-A-L-G-L-A-R (Fmoc-RAAALGLAR) [Peptide D4]
[2]; Table 1F
  Potency relative to C3a (57-77), %: 79%

## Fmoc-R-A-A-R-L-G-L-A-R (Fmoc-RAARLGLAR) [Peptide D5]
[2]; Table 1F
  Potency relative to C3a (57-77), %: 61%

## Fmoc-R-R-R-Y-A-S-K-L-G-L-A-R (Fmoc-RRRYASKLGLAR) [Peptide B17]
[5]
  Potency relative to C3a (57-77), %: 261%

## Fmoc-R-R-Y-R-A-S-K-L-G-L-A-R (Fmoc-RRYRASKLGLAR) [Peptide D6]
[2]; Table 1F
  Potency relative to C3a (57-77), %: 176%

## Fmoc-W-W-R-R-R-Y-A-S-K-L-G-L-A-R (Fmoc-WWRRRYASKLGLAR) [Peptide B19]
[5]
  Potency relative to C3a (57-77), %: 53%

## Fmoc-Y-R-A-S-K-L-G-L-A-R (Fmoc-YRASKLGLAR) [Peptide B4]
[5]
  Potency relative to C3a (57-77), %: 121%

## FmocW-R-R-R-Y-A-S-K-L-G-L-A-R (Fmoc-WRRRYASKLGLAR) [Peptide B20]
[5]
  Potency relative to C3a (57-77), %: 70%

## G-I-G-G-Y-R-K-S-A-L-G-L-A-R (GIGGYRKSALGLAR) [Peptide B10]
[5]
  Potency relative to C3a (57-77), %: 41%

## H-Ala-Ser-His-Leu-Gly-Leu-Ala-Arg-OH (H-ASHLGLAR-OH) [C3a-(70-77)]
[3]
  Relative molar activity (%): 2.0%

## H-Arg-Gln-His-Ala-Arg-Ala-Ser-His-Leu-Gly-Leu-Ala-Arg-OH (H-RQHARASHLGLAR-OH) [C3a-(65-77)]
[3]
  Relative molar activity (%): 2.5%

## H-Cys-Asn-Tyr-Ile-Thr-Glu-Leu-Arg-Arg-Gln-His-Ala-Arg-Ala-Ser-His-Leu-Gly-Leu-Ala-Arg-OH (H-CNYITELRRQHARASHLGLAR-OH) [C3a-(57-77)]
[3]
  Relative molar activity (%): >20* %

## H-Trp-Trp-Gly-Lys-Lys-Tyr-Arg-Ala-Ser-Lys-Leu-Gly-Leu-Ala-Arg-OH (H-WWGKKYRASKLGLAR-OH) [Peptide E7]
[3]
  Relative molar activity (%): >100** %

## I-G-G-G-Y-R-K-S-A-L-G-L-A-R (IGGGYRKSALGLAR) [Peptide B11]
[5]
  Potency relative to C3a (57-77), %: 16%

## I-G-L-A-R [Peptide 4]
[1]
  Relative Act. %: 0.8%
  Relative molar activity (%): 100%

## I-I-G-G-Y-R-A-S-K-L-G-L-A-R (IIGGYRASKLGLAR) [Peptide B8]
[5]
  Potency relative to C3a (57-77), %: 50%

## I-I-G-G-Y-R-K-S-A-L-G-L-A-R (IIGGYRKSALGLAR) [Peptide B9]
[5]
  Potency relative to C3a (57-77), %: 37%

## I-R-R-R-Y-A-S-K-L-G-L-A-R (IRRRYASKLGLAR) [Peptide B15]
[5]
  Potency relative to C3a (57-77), %: 99%

## L-A-L-A-R [Peptide 8]
[1]
  Relative Act. %: 0.59%
  Relative molar activity (%): 270%

## L-E-L-A-R [Peptide 13]
[1]
  Relative Act. %: 2.0%
  Relative molar activity (%): <2.4%

## L-G-A-A-R [Peptide Code 12]
[1]
  Relative molar activity (%): <1.4%

## L-G-F-A-R [Peptide 16]
[1]
  Relative Act. %: 1.0%
  Relative molar activity (%): <1.5%

## L-G-I-A-R [Peptide 14]
[1]
  Relative Act. %: 0.8%
  Relative molar activity (%): 10%

## L-G-L-A-R (LGLAR) [Peptide Code 5]
[1]; asterisk: based on guinea pig ileal assay
  Potency relative to C3a (57-77), %: 0.2* %
[1]
  Relative Act. %: 5.9%
  Relative molar activity (%): 100%

## L-G-L-E-R [Peptide 23]
[1]
  Relative molar activity (%): <2.6%

## L-G-L-G-R [Peptide 22]
[1]
  Relative molar activity (%): <5.8%

## L-G-L-P-R [Peptide 19]
[1]
  Relative molar activity (%): 3.5%

## L-G-L-Q-R [Peptide 20]
[1]
  Relative molar activity (%): 2.8%

## L-G-L-S-R [Peptide 21]
[1]
  Relative molar activity (%): 0.7%

## L-G-M-A-R [Peptide 15]
[1]
  Relative Act. %: 0.25%
  Relative molar activity (%): 2.1%

## L-G-V-A-R [Peptide 17]
[1]
  Relative Act. %: <0.005%
  Relative molar activity (%): <1.1%

## L-L-L-A-R [Peptide 11]
[1]
  Relative Act. %: 0.023%
  Relative molar activity (%): 10%

## L-Q-L-A-R [Peptide 12]
[1]
  Relative Act. %: <0.003%
  Relative molar activity (%): <5.5%

## L-S-L-A-R [Peptide 9]
[1]
  Relative Act. %: 2.0%
  Relative molar activity (%): 55%

## L-V-L-A-R [Peptide 10]
[1]
  Relative Act. %: 1.2%
  Relative molar activity (%): 10%

## M-G-L-A-R [Peptide 6]
[1]
  Relative Act. %: 0.005%
  Relative molar activity (%): 50%

## R-R-R-Y-A-S-K-L-G-L-A-R (RRRYASKLGLAR) [Peptide B13]
[5]
  Potency relative to C3a (57-77), %: 50%

## R-R-Y-A-S-K-L-G-L-A-R (RRYASKLGLAR) [Peptide B12]
[5]
  Potency relative to C3a (57-77), %: 18%

## R-Y-A-S-K-L-G-L-A-R (RYASKLGLAR) [Peptide B2]
[5]
  Potency relative to C3a (57-77), %: 7.0%

## V-G-L-A-R [Peptide 5]
[1]
  Relative Act. %: 0.2%
  Relative molar activity (%): 90%

## W-Ahx-Y-A-S-K-L-G-L-A-R (W[Ahx]YASKLGLAR) [Peptide C4]
[2]; Table 1E
  Potency relative to C3a (57-77), %: 22%

## W-Ahx-Y-S-H-K-G-M-L-L-G-R (W[Ahx]YSHKGMLLGR) [Peptide C10]
[2]; Table 1E
  Potency relative to C3a (57-77), %: 1.2%

## W-G-G-Y-R-A-S-K-L-G-L-A-R (WGGYRASKLGLAR) [Peptide B5]
[5]
  Potency relative to C3a (57-77), %: 99%

## W-I-G-G-Y-R-A-S-K-L-G-L-A-R (WIGGYRASKLGLAR) [Peptide B7]
[5]
  Potency relative to C3a (57-77), %: 118%

## W-R-R-R-Y-A-S-K-L-G-L-A-R (WRRRYASKLGLAR) [Peptide B14]
[5]
  Potency relative to C3a (57-77), %: 66%

## W-W-Ahx-Y-R-A-S-K-L-G-L-A-R (WW[Ahx]YRASKLGLAR) [Peptide C6]
[2]; Table 1E
  Potency relative to C3a (57-77), %: 603%

## W-W-G-G-Y-R-A-S-A-L-G-L-A-R (WWGGYRASALGLAR) [Peptide D10]
[2]; Table 1F
  Potency relative to C3a (57-77), %: 181%

## W-W-G-G-Y-R-A-S-K-L-G-L-A-R (WWGGYRASKLGLAR) [Peptide B6]
[5]
  Potency relative to C3a (57-77), %: 259%

## W-W-G-G-Y-R-K-S-A-L-G-L-A-R (WWGGYRKSALGLAR) [Peptide D11]
[2]; Table 1F
  Potency relative to C3a (57-77), %: 259%

## W-W-G-G-Y-R-P-S-A-L-G-L-A-R (WWGGYRPSALGLAR) [Peptide D12]
[2]; Table 1F
  Potency relative to C3a (57-77), %: 252%

## W-W-G-G-Y-R-a-S-A-L-G-L-A-R (WWGGYR[dA]SALGLAR) [Peptide D13]
[2]; Table 1F
  Potency relative to C3a (57-77), %: 118%

## W-W-R-R-R-Y-A-S-K-L-G-L-A-R (WWRRRYASKLGLAR) [Peptide B16]
[5]
  Potency relative to C3a (57-77), %: 296%

## Y-A-S-K-L-G-L-A-R (YASKLGLAR) [Peptide C1]
[2]; Table 1E
  Potency relative to C3a (57-77), %: 3.4%

## Y-G-L-A-R [Peptide 2]
[1]
  Relative Act. %: 2.3%
  Relative molar activity (%): 160%

## Y-R-A-S-K-L-G-L-A-R (YRASKLGLAR) [Peptide B3]
[5]
  Potency relative to C3a (57-77), %: 55%

## Y-S-H-K-G-M-L-L-G-R (YSHKGMLLGR) [Peptide C7]
[2]; Table 1E
  Potency relative to C3a (57-77), %: 0.5%
